Data from PubChem BioAssay AID220 (DTP/NCI, 2004).
“And” between values parts separate entries of the source, which are not always exact repeats. Equal values may be shown once. Records with an inconclusive call do not appear.

Tested on: CD8F1 mice, subcutaneous mammary adenocarcinoma, T/C%
Assay: NCI In Vivo Anticancer Drug Screen. Data for tumor model Mammary Adenocarcinoma CD8F1 (subcutaneous) in CD8F1
Conditions: higher = larger tumour
Summary of the method: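 Compound-treated versus vehicle-treated mice with transplantable tumors; survival or tumor size compared as T/C.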

[1] = endpoint: median tumor weight change, dose: 125.0 mg/kg/injection, schedule: Q01DX001 (ip), vehicle: Klucel (hydroxypropylcellulose) (HPC)

**Q.** How did the T/C (endpoint: mean tumor weight (est.), dose: 20.0 mg/kg/injection, schedule: Q07DX006 (ip), vehicle: sodium bicarbonate) turn out when `CN(Cc1cnc2nc(N)nc(N)c2n1)c1ccc(C(=O)N[C@@H](CCC(=O)O)C(=O)O)cc1` was run?
**A.** Its T/C is 192 % of control.

**Q.** What about the T/C (endpoint: mean tumor weight (est.), dose: 75.0 mg/kg/injection, schedule: Q07DX004 (ip), vehicle: sodium bicarbonate) of the same compound?
**A.** The T/C was 91 % of control.

**Q.** What about the T/C (endpoint: mean tumor weight (est.), dose: 100.0 mg/kg/injection, schedule: Q07DX004 (ip), vehicle: sodium bicarbonate) of the same compound?
**A.** Its T/C is 90 % of control.

**Q.** And the T/C (endpoint: mean tumor weight, dose: 2.0 mg/kg/injection, schedule: Q01DX009 (ip), vehicle: saline)?
**A.** Its T/C is 84 % of control.

**Q.** And the T/C (endpoint: mean tumor weight, dose: 2.0 mg/kg/injection, schedule: Q01DX009 (ip), vehicle: sodium bicarbonate)?
**A.** The T/C was 234 % of control.

**Q.** What about the T/C (endpoint: mean tumor weight, dose: 4.0 mg/kg/injection, schedule: Q01DX009 (ip), vehicle: saline) of the same compound?
**A.** The T/C was 44 % of control.

**Q.** What about the T/C (endpoint: mean tumor weight, dose: 4.0 mg/kg/injection, schedule: Q01DX009 (ip), vehicle: sodium bicarbonate) of the same compound?
**A.** Its T/C is 84 % of control.

**Q.** And the T/C (endpoint: mean tumor weight, dose: 12.5 mg/kg/injection, schedule: Q07DX004 (ip), vehicle: saline)?
**A.** The T/C was 87 % of control.

**Q.** What about the T/C (endpoint: mean tumor weight, dose: 25.0 mg/kg/injection, schedule: Q07DX004 (ip), vehicle: saline) of the same compound?
**A.** The T/C was 23 % of control.

**Q.** And the T/C (endpoint: mean tumor weight, dose: 25.0 mg/kg/injection, schedule: Q07DX006 (ip), vehicle: saline)?
**A.** The T/C was 44 % of control.

**Q.** And the T/C (endpoint: mean tumor weight, dose: 50.0 mg/kg/injection, schedule: Q07DX003 (ip), vehicle: sodium bicarbonate)?
**A.** Its T/C is 50 % of control.

**Q.** And the T/C (endpoint: mean tumor weight, dose: 50.0 mg/kg/injection, schedule: Q07DX004 (ip), vehicle: saline)?
**A.** Its T/C is 26 % of control.

**Q.** And the T/C (endpoint: mean tumor weight, dose: 50.0 mg/kg/injection, schedule: Q07DX006 (ip), vehicle: saline)?
**A.** The T/C was 93 % of control.

**Q.** What about the T/C (endpoint: mean tumor weight, dose: 100.0 mg/kg/injection, schedule: Q07DX003 (ip), vehicle: sodium bicarbonate) of the same compound?
**A.** Its T/C is 43 % of control.

**Q.** What about the T/C (endpoint: mean tumor weight, dose: 100.0 mg/kg/injection, schedule: Q07DX006 (ip), vehicle: saline) of the same compound?
**A.** The T/C was 56 % of control.

**Q.** What about the T/C (endpoint: mean tumor weight, dose: 150.0 mg/kg/injection, schedule: Q07DX005 (ip), vehicle: sodium bicarbonate) of the same compound?
**A.** Its T/C is 107 % of control.

**Q.** What about the T/C (endpoint: mean tumor weight, dose: 200.0 mg/kg/injection, schedule: Q07DX005 (ip), vehicle: sodium bicarbonate) of the same compound?
**A.** The T/C was 70 % of control.

**Q.** And the T/C (endpoint: mean tumor weight, dose: 250.0 mg/kg/injection, schedule: Q07DX005 (ip), vehicle: sodium bicarbonate)?
**A.** The T/C was 45 % of control.

**Q.** What about the T/C (endpoint: median tumor weight (est.), dose: 2.5 mg/kg/injection, schedule: Q07DX005 (ip), vehicle: sodium bicarbonate) of the same compound?
**A.** Its T/C is 63 % of control.

**Q.** What about the T/C (endpoint: median tumor weight (est.), dose: 5.0 mg/kg/injection, schedule: Q07DX005 (ip), vehicle: sodium bicarbonate) of the same compound?
**A.** Its T/C is 110 % of control and 111 % of control.

**Q.** And the T/C (endpoint: median tumor weight (est.), dose: 20.0 mg/kg/injection, schedule: Q07DX005 (ip), vehicle: sodium bicarbonate)?
**A.** The T/C was 112 % of control.

**Q.** And the T/C (endpoint: median tumor weight (est.), dose: 40.0 mg/kg/injection, schedule: Q07DX005 (ip), vehicle: sodium bicarbonate)?
**A.** The T/C was 85 % of control and 107 % of control.

**Q.** And the T/C (endpoint: median tumor weight (est.), dose: 80.0 mg/kg/injection, schedule: Q07DX005 (ip), vehicle: sodium bicarbonate)?
**A.** Its T/C is 20 % of control.

**Q.** Which results are given for `CC(=O)OCC1OC(n2ccc(N)nc2=O)C(OC(C)=O)C1OC(C)=O` (stereo unspecified)?
**A.** T/C (endpoint: median tumor weight (est.), dose: 25.0 mg/kg/injection, schedule: Q07DX005 (ip), vehicle: suspension in saline): 159 % of control; T/C (endpoint: median tumor weight (est.), dose: 50.0 mg/kg/injection, schedule: Q07DX005 (ip), vehicle: suspension in saline): 70 % of control; T/C (endpoint: median tumor weight (est.), dose: 100.0 mg/kg/injection, schedule: Q07DX005 (ip), vehicle: suspension in saline): 87 % of control; T/C (endpoint: median tumor weight (est.), dose: 200.0 mg/kg/injection, schedule: Q07DX005 (ip), vehicle: suspension in saline): 88 % of control; T/C (endpoint: median tumor weight (est.), dose: 400.0 mg/kg/injection, schedule: Q07DX005 (ip), vehicle: suspension in saline): 96 % of control; T/C (endpoint: median tumor weight (est.), dose: 800.0 mg/kg/injection, schedule: Q07DX005 (ip), vehicle: suspension in saline): 6 % of control

**Q.** What does the source list for `O=[n+]1c2ccccc2n([O-])c2ccccc21.[Cl][Ni][Cl]`?
**A.** T/C (endpoint: median tumor weight change, dose: 15.63 mg/kg/injection, schedule: Q01DX001 (ip), vehicle: saline with Tween-80): 87 % of control; T/C (endpoint: median tumor weight change, dose: 31.25 mg/kg/injection, schedule: Q01DX001 (ip), vehicle: saline with Tween-80): 52 % of control

**Q.** For `Cc1nnc2ncccn12`, which T/C (endpoint: median tumor weight change, dose: 250.0 mg/kg/injection, schedule: Q01DX001 (ip), vehicle: saline) is on record?
**A.** The T/C was 92 % of control.

**Q.** What does the source list for `CC(O)CCC(=O)c1ccoc1` (stereo unspecified)?
**A.** T/C (endpoint: median tumor weight change, dose: 3.32 mg/kg/injection, schedule: Q03HX003 (ip), vehicle: saline): 89 % of control; T/C (endpoint: median tumor weight change, dose: 6.65 mg/kg/injection, schedule: Q03HX003 (ip), vehicle: saline): 101 % of control

**Q.** For `O=C(Nc1cccc2c(OC(=O)C(Cl)Cl)c(N=Nc3ccc(S(=O)(=O)Nc4nccs4)cc3)cc(N=Nc3ccc(S(=O)(=O)Nc4nccs4)cc3)c12)C(Cl)Cl` (tested in a mixture with another compound), which T/C (endpoint: median tumor weight change, dose: 250.0 mg/kg/injection, schedule: Q01DX001 (ip), vehicle: saline with Tween-80) is on record?
**A.** The T/C was 106 % of control.

**Q.** What about the T/C (endpoint: median tumor weight change, dose: 500.0 mg/kg/injection, schedule: Q01DX001 (ip), vehicle: saline with Tween-80) of the same compound?
**A.** Its T/C is 124 % of control.

**Q.** And the T/C (endpoint: median tumor weight change, dose: 1000.0 mg/kg/injection, schedule: Q01DX001 (ip), vehicle: saline with Tween-80)?
**A.** Its T/C is 37 % of control.

**Q.** Which results are given for `NC(=S)N/N=C/c1ccc(OC(=O)COc2ccc(Cl)cc2)cn1`?
**A.** T/C (endpoint: mean tumor weight, dose: 25.0 mg/kg/injection, schedule: Q07DX008 (ip), vehicle: saline): 100 % of control; T/C (endpoint: mean tumor weight, dose: 50.0 mg/kg/injection, schedule: Q07DX008 (ip), vehicle: saline): 50 % of control; T/C (endpoint: mean tumor weight, dose: 100.0 mg/kg/injection, schedule: Q07DX008 (ip), vehicle: saline): 64 % of control; T/C (endpoint: mean tumor weight, dose: 200.0 mg/kg/injection, schedule: Q07DX008 (ip), vehicle: saline): 60 % of control; T/C (endpoint: mean tumor weight, dose: 400.0 mg/kg/injection, schedule: Q07DX008 (ip), vehicle: saline): 105 % of control; T/C (endpoint: median tumor weight (est.), dose: 12.5 mg/kg/injection, schedule: Q07DX005 (ip), vehicle: saline with Tween-80): 52 % of control; T/C (endpoint: median tumor weight (est.), dose: 25.0 mg/kg/injection, schedule: Q07DX005 (ip), vehicle: saline with Tween-80): 167 % of control; T/C (endpoint: median tumor weight (est.), dose: 50.0 mg/kg/injection, schedule: Q07DX005 (ip), vehicle: saline with Tween-80): 79 % of control; T/C (endpoint: median tumor weight (est.), dose: 100.0 mg/kg/injection, schedule: Q07DX005 (ip), vehicle: saline with Tween-80): 114 % of control; T/C (endpoint: median tumor weight (est.), dose: 200.0 mg/kg/injection, schedule: Q07DX005 (ip), vehicle: saline with Tween-80): 82 % of control; T/C (endpoint: median tumor weight (est.), dose: 400.0 mg/kg/injection, schedule: Q07DX005 (ip), vehicle: saline with Tween-80): 119 % of control

**Q.** How did the T/C (endpoint: median tumor weight change, dose: 12.5 mg/kg/injection, schedule: Q01DX001 (ip), vehicle: Klucel (hydroxypropylcellulose) (HPC)) turn out when `CN1CCc2c(c3ccccc3c3ccccc23)C1` was run?
**A.** The T/C was 57 % of control.

**Q.** And the T/C (endpoint: median tumor weight change, dose: 25.0 mg/kg/injection, schedule: Q01DX001 (ip), vehicle: Klucel (hydroxypropylcellulose) (HPC))?
**A.** The T/C was 65 % of control.

**Q.** And the T/C (endpoint: median tumor weight change, dose: 50.0 mg/kg/injection, schedule: Q01DX001 (ip), vehicle: Klucel (hydroxypropylcellulose) (HPC))?
**A.** The T/C was 49 % of control.

**Q.** What about the T/C (endpoint: median tumor weight change, dose: 62.5 mg/kg/injection, schedule: Q01DX001 (ip), vehicle: Klucel (hydroxypropylcellulose) (HPC)) of the same compound?
**A.** Its T/C is 74 % of control.

**Q.** And the T/C (endpoint: median tumor weight change, dose: 100.0 mg/kg/injection, schedule: Q01DX001 (ip), vehicle: Klucel (hydroxypropylcellulose) (HPC))?
**A.** Its T/C is 27 % of control.

**Q.** And the T/C [1]?
**A.** Its T/C is 56 % of control.

**Q.** For `Cc1ccc(C2NC(=S)N3C(c4ccc(C)cc4)NC(=S)N23)cc1` (stereo unspecified), which T/C [1] is on record?
**A.** Its T/C is 77 % of control.

**Q.** What about the T/C (endpoint: median tumor weight change, dose: 250.0 mg/kg/injection, schedule: Q01DX001 (ip), vehicle: Klucel (hydroxypropylcellulose) (HPC)) of the same compound?
**A.** The T/C was 104 % of control.

**Q.** And the T/C (endpoint: median tumor weight change, dose: 500.0 mg/kg/injection, schedule: Q01DX001 (ip), vehicle: Klucel (hydroxypropylcellulose) (HPC))?
**A.** Its T/C is 107 % of control.

**Q.** What about the T/C (endpoint: median tumor weight change, dose: 1000.0 mg/kg/injection, schedule: Q01DX001 (ip), vehicle: Klucel (hydroxypropylcellulose) (HPC)) of the same compound?
**A.** Its T/C is 94 % of control.

**Q.** What about the T/C (endpoint: median tumor weight change, dose: 2000.0 mg/kg/injection, schedule: Q01DX001 (ip), vehicle: Klucel (hydroxypropylcellulose) (HPC)) of the same compound?
**A.** The T/C was 68 % of control.

**Q.** For `CCCCC[C@H](O)/C=C/[C@@H]1[C@@H](C/C=C\CCCC(=O)O)[C@@H](O)C[C@H]1O`, which T/C (endpoint: mean tumor weight, dose: 160.0 mg/kg/injection, schedule: Q01DX001 (iv), vehicle: saline) is on record?
**A.** Its T/C is 93 % of control.

**Q.** What about the T/C (endpoint: mean tumor weight, dose: 320.0 mg/kg/injection, schedule: Q01DX001 (iv), vehicle: saline) of the same compound?
**A.** Its T/C is 58 % of control.
